# Source: patent publication US4921865A, “Aminoacylates of glycerol acetal” (Societe de Conseils de Recherches et d'Applications …, priority 1987, dated 1990)
# How the values were obtained:
# [1] = test system: PAF-induced thrombocytopenia; assay: PAF-induced thrombocytopenia in the guinea pig; type: in vivo; conditions: for Percentage Variation (thrombocytopenia): vs control; for Percentage Decrease in leukocyte number: thrombocytopenia
# Protocol: (§1) Male Guinea-pig (400-500 g) were anesthetized with urethane (1.5 g/kg: IP) prior to be tracheotomized and ventilated with a respiratory pump (UGO BASILE) (70-80 breath/minute, 1 ml air/100 g/breath) to abolish spontaneous respiration a pneumothorax was performed. The resistance to inflation was measured with a pressure transducer (UGO BASILE) against an initial pressure of 10 cm H2 O according to Konzett and Rossler. Animals were allocated into groups and were treated or not by the compounds of the invention (0.05, 0.1, 0.5, 1 and 5 mg/kg).The products were given IV 1 hour before challenge with PAF.
# (§2) The animals were challenged with various doses of PAF ([…]) given intravenously, and the variations in the resistance to inflation were recorded.
# (§3) Blood samples were collected prior to and 1,5 and 10 minutes following to PAF-challenge. Forty μl of blood were diluted in 10 ml isoton (Coultronics, France); erythrocytes were lysed with Zapoglobin (France) prior leukocytes were counted in a coulter counter. To determine platelet number, 40 μl of blood were diluted in 2 ml isoton and centrifuged at 100 runs per minute for 30 secondes, 100 μl of the supernatant were collected and further diluted in 10 ml isoton prior counting in a coulter counter.
# [2] = test system: platelets (PAF induced platelet aggregation); assay: inhibition of PAF-induced platelet aggregation in platelet rich plasma; type: cell-based, New Zealand rabbits; conditions: Oryctolagus cuniculus; rabbit platelet rich plasma, 2.5 nM PAF
# Protocol: 1--INHIBITION OF THE PLATELETS AGGREGATION ON NEW ZEALAND RABBITS
# The experimentation was conducted on platelets with plasma of New Zealand rabbits.
# Blood samples were taken from auricular artery and placed in a citrate buffer (3.8 %; pH 7.4); blood was further centrifugated for 15 mn at 1200 RPM.
# The tested sample was prepared in DMSO, then poured on platelets rich plasma for 1 mn, then a dose of 2.5 nM of PAF was added.
# The determination is made on a Cronolog Coultronics apparatus which determines the transmission percentage corresponding to the maximum height of the peak before the desaggregation.
# The percentage of variation of the inhibition with respect to the transmission percentage is calculated (control: pure DMSO).
# This method was described in details in LABORATORY INVESTIGATIONS, Vol. 41, No. 3, p. 275, 1979, JEAN-PIERRE CAZENAVE, Dr. MED. , JACQUES BENVENISTE, Dr. MED., AND J. FRASER MUSTARD, M.D., "Aggregation of Rabbits Platelets by Platelet-Activating Factor Is Independent of the Release Reaction and the Arachidonate Pathway and Inhibited by Membrane-Active Drugs".
# Five tests made on 5 different rabbits allowed us to calculate the IC50 of the various compounds using the linear regression test.
# [3] = test system: PAF-induced leukopenia; assay: PAF-induced leukopenia in the guinea pig; type: in vivo; conditions: for Percentage Variation (leukopenia): vs control
# Protocol: as §1, §2, §3
# [4] = test system: PAF-induced bronchoconstriction; assay: PAF-induced bronchoconstriction in the guinea pig; type: in vivo; conditions: for Percentage Variation (bronchoconstriction): vs control
# Protocol: as §1, §2
# [5] = test system: PAF-induced [Ca^2+ ]i mobilization, washed rabbits platelets; assay: inhibition of intracytosolic free calcium mobilization induced by PAF in washed rabbit platelets; type: cell-based; conditions: PAF 2×10^-9 M
# Protocol: Blood was taken from the auricular artery of the rabbit on citric acid/sodium citrate/dextrose and anticoagulan and the washed platelets were prepared according to Ardlie et al., Brit. J. Pharmacology, 19, 7-17, 1970. They were incubated with acetylsalicylic salt (100 μM, 30 minutes) to avoid thromboxane induced aggregation. They were then loaded with the fluorescent calcium indicator dye quin 2 by incubation with quin 2 aceto-methylester (15 μM in DMSO, 20 minutes at room temperature) which penetrates the cell membrane and after hydrolysed is trapped in the platelet. Drugs were preincubated with platelets for 15 minutes simultaneously to CP/CPK mixture which destroys secreted ADP.
# Fluorescent measurement was then performed (excitation λ=339 nm, emission λ=494 nm) after PAF addition to platelet suspension. The fluorescence intensity is proportional to the cytosolic free calcium level [Ca^2+ ]i which can be quantified as described by Tsien et al., J. Cell Biol., 94, 325-334, 1982.
# [6] = pyridinium compound 0.5, 1 and 5 mg/kg IV, quinolinium compound 0.5 and 1 mg/kg IV
smiles,measurement,setting,value
"CCCCCCCCCCCCCCCCCC1(C)OCC(COC(=O)CCCCC[n+]2cccc3ccccc32)O1 (centres unmarked) [Example 10, 2-heptadecyl 2-methyl 4-[6'-(N-quinolinium)hexanoyloxymethyl) 1,3-dioxolanbromide]",Percentage Variation (thrombocytopenia),"[1]; 0.1 mg/kg IV, 1 mn",-21.7%
same,Percentage Variation (thrombocytopenia),"[1]; 0.1 mg/kg IV, 5 mn",0%
same,Percentage Variation (thrombocytopenia),"[1]; 0.1 mg/kg IV, 10 mn",-7.2%
same,Percentage Variation (thrombocytopenia),"[1]; 0.5 mg/kg IV, 1 mn",-59.9%
same,Percentage Variation (thrombocytopenia),"[1]; 0.5 mg/kg IV, 5 mn",-39.3%
same,Percentage Variation (thrombocytopenia),"[1]; 0.5 mg/kg IV, 10 mn",-33.8%
same,Percentage Variation (thrombocytopenia),"[1]; 1 mg/kg IV, 1 mn",-58.3%
same,Percentage Variation (thrombocytopenia),"[1]; 1 mg/kg IV, 5 mn",-55.0%
same,Percentage Variation (thrombocytopenia),"[1]; 1 mg/kg IV, 10 mn",-60.0%
same,inhibition of PAF-induced thrombocytopenia (in words),[1]; [6],inhibit
same,Percentage Decrease in leukocyte number,"[1]; 0.1 mg/kg IV, 1 mn",51.1 +/- 12.1%
same,Percentage Decrease in leukocyte number,"[1]; 0.1 mg/kg IV, 5 mn",49.1 +/- 8.8%
same,Percentage Decrease in leukocyte number,"[1]; 0.1 mg/kg IV, 10 mn",45.0 +/- 9.7%
same,Percentage Decrease in leukocyte number,"[1]; 0.5 mg/kg IV, 1 mn",26.2 +/- 6.3%
same,Percentage Decrease in leukocyte number,"[1]; 0.5 mg/kg IV, 5 mn",29.8 +/- 1.7%
same,Percentage Decrease in leukocyte number,"[1]; 0.5 mg/kg IV, 10 mn",32.1 +/- 5.8%
same,Percentage Decrease in leukocyte number,"[1]; 1 mg/kg IV, 1 mn",19.3 +/- 1.4%
same,Percentage Decrease in leukocyte number,"[1]; 1 mg/kg IV, 5 mn",22.1 +/- 2.5%
same,Percentage Decrease in leukocyte number,"[1]; 1 mg/kg IV, 10 mn",19.4 +/- 3.6%
same,IC50,[2],303 nM
same,Percentage Decrease of leukocyte number,"[3]; 0.1 mg/kg IV, 1 mn",38.8 +/- 6.3%
same,Percentage Variation (leukopenia),"[3]; 0.1 mg/kg IV, 1 mn",+6.3%
same,Percentage Decrease of leukocyte number,"[3]; 0.1 mg/kg IV, 5 mn",38.9 +/- 5.7%
same,Percentage Variation (leukopenia),"[3]; 0.1 mg/kg IV, 5 mn",+35.5%
same,Percentage Decrease of leukocyte number,"[3]; 0.1 mg/kg IV, 10 mn",41.2 +/- 6.5%
same,Percentage Variation (leukopenia),"[3]; 0.1 mg/kg IV, 10 mn",+53.2%
same,Percentage Decrease of leukocyte number,"[3]; 0.5 mg/kg IV, 1 mn",17.0 +/- 12.9%
same,Percentage Variation (leukopenia),"[3]; 0.5 mg/kg IV, 1 mn",-58.9%
same,Percentage Decrease of leukocyte number,"[3]; 0.5 mg/kg IV, 5 mn",9.0 +/- 11.8%
same,Percentage Variation (leukopenia),"[3]; 0.5 mg/kg IV, 5 mn",-68.6%
same,Percentage Decrease of leukocyte number,"[3]; 0.5 mg/kg IV, 10 mn",-7.6 +/- 17.5%
same,Percentage Variation (leukopenia),"[3]; 0.5 mg/kg IV, 10 mn",+128.3%
same,Percentage Decrease of leukocyte number,"[3]; 1 mg/kg IV, 1 mn",24.1 +/- 6.8%
same,Percentage Variation (leukopenia),"[3]; 1 mg/kg IV, 1 mn",-41.0%
same,Percentage Decrease of leukocyte number,"[3]; 1 mg/kg IV, 5 mn",9.3 +/- 9.4%
same,Percentage Variation (leukopenia),"[3]; 1 mg/kg IV, 5 mn",-67.6%
same,Percentage Decrease of leukocyte number,"[3]; 1 mg/kg IV, 10 mn",8.9 +/- 13.2%
same,Percentage Variation (leukopenia),"[3]; 1 mg/kg IV, 10 mn",-66.9%
same,Percentage Bronchoconstriction,[4]; 0.1 mg/kg IV,80.4 +/- 13.78%
same,Percentage Variation (bronchoconstriction),[4]; 0.1 mg/kg IV,-11.5%
same,Percentage Bronchoconstriction,[4]; 0.5 mg/kg IV,25.1 +/- 6.53%
same,Percentage Variation (bronchoconstriction),[4]; 0.5 mg/kg IV,-72.4%
same,Percentage Bronchoconstriction,[4]; 1 mg/kg IV,8.1 +/- 2.91%
same,Percentage Variation (bronchoconstriction),[4]; 1 mg/kg IV,-91.1%
same,inhibition of PAF-induced bronchoconstriction (in words),[4]; [6],inhibit
same,inhibition of PAF-induced [Ca^2+ ]i mobilization (in words),[5]; 5×10^-7 M,totally inhibit
same,inhibition at 0.05 µM,"[5]; Oryctolagus cuniculus, Platelet, 5×10^-8 M, read-out: inhibition of PAF effect on [Ca^2+ ]i",75%
